# Experimental data taken from US20210371491A1, “CHIMERIC ANTIGEN RECEPTORS THAT BIND TO PROSTATE SPECIFIC MEMBRANE ANTIGEN” (Albert-Ludwigs-Universitaet Freiburg, priority 2018, published 2021).
# Several values for one entry are separate records, joined by “and”; a condition that tells them apart may be missing. Equal entries are not always repeated.
# Tested on: C4-2^luc+ tumor xenografts
# Test: Treatment of C4-2^luc+ tumor xenografts by docetaxel chemotherapy plus intravenous CAR T cells (Example 12)
# Assay type: in vivo, mice
# Protocol: (A) Schematic of combined chemotherapy with intravenous CAR T cell therapy. Tumor engraftment was established in animals by subcutaneous injection of 1.5×10^6 cells. Chemotherapy had started at day 1 of the treatment for 3 days by intraperitoneal injection of docetaxel (DOC, 6 mg/kg bw). 48 hours after the last chemotherapy cycle, mice were injected intravenously with single doses of 5×10^6 CAR28 (n=3) or CAR41 T cells (n=3). Control mice were injected with docetaxel alone (n=3) or left untreated (control, n=4). Tumors were visualized via BLI until the end of treatment at day 17. D, day; i.v, intravenous injection; i.p, intraperitoneal; s.c, subcutaneous.
# (B) Antitumor activity of CAR28 and CAR41 T cells in combination with docetaxel chemotherapy. Mice with subcutaneously growing C4-2^luc+ tumors (200-250 mm^3) were intraperitoneally injected with docetaxel (DOC; 6 mg/kg bw) on days 1, 2, and 3 of treatment. 48 hours later mice were additionally injected with a single dose of 5×10^6 CAR28 (n=3) or CAR41 T cells (n=3) intravenously. Tumor growth was monitored by BLI. […] Statistical significant differences are indicated by *p<0.05.
# Mice with large C4-2^luc+ tumor xenografts (200-250 mm^3) were intraperitoneally injected with 3 daily cycles of docetaxel (DOC, 6 mg/kg bw on days 1, 2, and 3 of treatment) (FIG. 9A). 48 hours after the last cycle, mice were intravenously injected with only one dose of 5×10^6 CAR28 (n=3) CAR41 T cells (n=3), or PBS (n=3) respectively (FIG. 9A). Control animals (n=4) remained completely untreated. Tumor growth was monitored by BLI as described above. […] Compared to the control group (1817.5±165.5 mm^3) tumor end volumes of 338.2±355.6 mm^3 for mice treated with DOC alone and of 599.9±317.2 mm^3 for mice treated with DOC+CAR28 were reached on day 17 (FIG. 9C). […] A mean tumor volume of 50.2±71.0 mm^3 was determined (FIG. 9C).
compound,measurement,setting,value
"CC(=O)O[C@@]12CO[C@@H]1C[C@H](O)[C@@]1(C)C(=O)[C@H](O)C3=C(C)[C@@H](OC(=O)[C@H](O)[C@@H](NC(=O)OC(C)(C)C)c4ccccc4)C[C@@](O)([C@@H](OC(=O)c4ccccc4)[C@H]21)C3(C)C [DOC, docetaxel]",tumor growth compared to control group (in words),DOC 6 mg/kg bw days 1-3 ± CAR T cells i.v.,inhibition of tumor growth
same,"partial remission (PR), mice","DOC 6 mg/kg bw i.p. days 1-3, CAR T cells 5×10^6 i.v. 48 h later, tumors 200-250 mm^3",⅔
same,mean tumor volume,"day 17, DOC 6 mg/kg bw days 1-3 ± CAR T cells i.v.",338.2±355.6 mm^3 and 338.3±355.6 mm^3
